# Test results taken from patent US9932340B2, “Substituted indoles” (AbbVie Inc., priority 2014, dated 2018).
# Target: SUV420H1 enzyme (Homo sapiens, UniProt Q4FZB7)
# Experiment: TR-FRET SAH SUV420H1 enzyme inhibition assay
# Assay type: biochemical
# Conditions: Histone Peptide H4(8-30)me1 and SAM, overnight at room temp, TR-FRET detection of SAH, read-out: TR-FRET SAH_SUV420H1 IC50
# Procedure, shortened: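 SUV420H1 (90 nM) preincubated 30 min with compound (3-fold dilutions, 50 to 0.00075 μM), then H4(8-30)me1 peptide 5 nM and SAM 4 nM added, overnight at room temp. SAH product detected by TR-FRET with Tb anti-SAH antibody and Oregon Green-SAH in RIPA buffer, 4 h; IC50 from Hill fit, asymptotes fixed 0-100%.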
# SUV420H1 enzyme, sequence (Q4FZB7 whole entry): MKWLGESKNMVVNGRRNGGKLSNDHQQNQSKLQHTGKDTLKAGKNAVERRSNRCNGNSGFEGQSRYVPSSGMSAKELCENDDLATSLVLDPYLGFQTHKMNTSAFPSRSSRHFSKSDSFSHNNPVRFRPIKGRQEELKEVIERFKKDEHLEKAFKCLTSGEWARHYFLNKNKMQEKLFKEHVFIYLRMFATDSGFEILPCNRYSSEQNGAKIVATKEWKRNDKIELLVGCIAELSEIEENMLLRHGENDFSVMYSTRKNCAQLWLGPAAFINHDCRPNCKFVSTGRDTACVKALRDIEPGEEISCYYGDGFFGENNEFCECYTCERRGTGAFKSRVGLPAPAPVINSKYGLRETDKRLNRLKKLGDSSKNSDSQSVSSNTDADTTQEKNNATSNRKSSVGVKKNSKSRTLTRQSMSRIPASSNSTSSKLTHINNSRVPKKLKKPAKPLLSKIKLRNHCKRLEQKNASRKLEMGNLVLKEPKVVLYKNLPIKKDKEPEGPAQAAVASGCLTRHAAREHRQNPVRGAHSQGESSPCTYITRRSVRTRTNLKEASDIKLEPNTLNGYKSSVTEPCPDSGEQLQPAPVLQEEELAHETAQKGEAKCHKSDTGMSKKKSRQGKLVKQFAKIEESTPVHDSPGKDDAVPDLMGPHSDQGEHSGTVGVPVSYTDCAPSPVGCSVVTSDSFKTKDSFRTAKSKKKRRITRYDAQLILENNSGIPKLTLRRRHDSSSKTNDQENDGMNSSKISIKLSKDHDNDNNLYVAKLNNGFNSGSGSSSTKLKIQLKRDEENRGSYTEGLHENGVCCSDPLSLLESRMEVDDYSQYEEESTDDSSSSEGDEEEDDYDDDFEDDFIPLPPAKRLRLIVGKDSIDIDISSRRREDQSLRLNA
row,SMILES,IC50 [µM]
1,"CCc1nc2ccc(C(=O)NCc3cc4cc(Cl)cc(Cn5cnc6c(N)ncnc65)c4[nH]3)cc2[nH]1 [Example 368, N-({7-[(6-amino-9H-purin-9-yl)methyl]-5-chloro-1H-indol-2-yl}methyl)-2-ethyl-1H-benzimidazole-6-carboxamide]",7.61
2,"N#Cc1c[nH]c2ccc(C(=O)NCc3cc4cc(Cl)cc(Cn5cnc6c(N)ncnc65)c4[nH]3)cc12 [Example 369, N-({7-[(6-amino-9H-purin-9-yl)methyl]-5-chloro-1H-indol-2-yl}methyl)-3-cyano-1H-indole-5-carboxamide]",> 50
3,"CC(C)c1noc2ncc(C(=O)NCc3cc4cc(Cl)cc(Cn5cnc6c(N)ncnc65)c4[nH]3)cc12 [Example 370, N-({7-[(6-amino-9H-purin-9-yl)methyl]-5-chloro-1H-indol-2-yl}methyl)-3-(propan-2-yl)[1,2]oxazolo[5,4-b]pyridine-5-carboxamide]",1.69
4,"CC(C)n1nnc2cc(C(=O)NCc3cc4cc(Cl)cc(Cn5cnc6c(N)ncnc65)c4[nH]3)ccc21 [Example 371, N-({7-[(6-amino-9H-purin-9-yl)methyl]-5-chloro-1H-indol-2-yl}methyl)-1-(propan-2-yl)-1H-benzotriazole-5-carboxamide]",21.5
5,"CC(C)n1ncc2cc(C(=O)NCc3cc4cc(Cl)cc(Cn5cnc6c(N)ncnc65)c4[nH]3)cnc21 [Example 372, N-({7-[(6-amino-9H-purin-9-yl)methyl]-5-chloro-1H-indol-2-yl}methyl)-1-(propan-2-yl)-1H-pyrazolo[3,4-b]pyridine-5-carboxamide]",0.97
6,"COc1c(C(=O)NCc2cc3cc(Cl)cc(Cn4cnc5c(N)ncnc54)c3[nH]2)cnc2c1c(C)nn2C [Example 373, N-({7-[(6-amino-9H-purin-9-yl)methyl]-5-chloro-1H-indol-2-yl}methyl)-4-methoxy-1,3-dimethyl-1H-pyrazolo[3,4-b]pyridine-5-carboxamide]",0.0844
7,"Cc1[nH]c2cc(C(=O)NCc3cc4cc(Cl)cc(Cn5cnc6c(N)ncnc65)c4[nH]3)ccc2c1C [Example 374, N-({7-[(6-amino-9H-purin-9-yl)methyl]-5-chloro-1H-indol-2-yl}methyl)-2,3-dimethyl-1H-indole-6-carboxamide]",0.261
8,"Cc1nc2c(cnn2C(C)C)cc1C(=O)NCc1cc2cc(Cl)cc(Cn3cnc4c(N)ncnc43)c2[nH]1 [Example 377, N-({7-[(6-amino-9H-purin-9-yl)methyl]-5-chloro-1H-indol-2-yl}methyl)-6-methyl-1-(propan-2-yl)-1H-pyrazolo[3,4-b]pyridine-5-carboxamide]",2.71
9,"CCCCc1nc2cc(C(=O)NCc3cc4cc(Cl)cc(Cn5cnc6c(N)ncnc65)c4[nH]3)ccc2o1 [Example 379, N-({7-[(6-amino-9H-purin-9-yl)methyl]-5-chloro-1H-indol-2-yl}methyl)-2-butyl-1,3-benzoxazole-5-carboxamide]",0.765

# Second part, the compound after the results:
row,IC50 [µM],SMILES
1,3.28,"Cc1cc2cc(C(=O)NCc3cc4cc(Cl)cc(Cn5cnc6c(N)ncnc65)c4[nH]3)ccc2o1 [Example 364, N-({7-[(6-amino-9H-purin-9-yl)methyl]-5-chloro-1H-indol-2-yl}methyl)-2-methyl-1-benzofuran-5-carboxamide]"
2,1.88,Cn1ccc2ccc(C(=O)NCc3cc4cc(Cl)cc(Cn5cnc6c(N)ncnc65)c4[nH]3)cc21 [Example 365]
3,2.87,"Cn1ccc2cc(C(=O)NCc3cc4cc(Cl)cc(Cn5cnc6c(N)ncnc65)c4[nH]3)ccc21 [Example 366, N-({7-[(6-amino-9H-purin-9-yl)methyl]-5-chloro-1H-indol-2-yl}methyl)-1-methyl-1H-indole-5-carboxamide]"
4,0.591,"Cc1nc2cc(C(=O)NCc3cc4cc(Cl)cc(Cn5cnc6c(N)ncnc65)c4[nH]3)ccc2n1C [Example 367, N-({7-[(6-amino-9H-purin-9-yl)methyl]-5-chloro-1H-indol-2-yl}methyl)-1,2-dimethyl-1H-benzimidazole-5-carboxamide]"
5,12.4,"Cc1[nH]c2ccc(C(=O)NCc3cc4cc(Cl)cc(Cn5cnc6c(N)ncnc65)c4[nH]3)cc2c1C [Example 375, N-({7-[(6-amino-9H-purin-9-yl)methyl]-5-chloro-1H-indol-2-yl}methyl)-2,3-dimethyl-1H-indole-5-carboxamide]"
6,2.95,"Cc1nc2cc(C(=O)NCc3cc4cc(Cl)cc(Cn5cnc6c(N)ncnc65)c4[nH]3)ccc2n1CCO [Example 376, N-({7-[(6-amino-9H-purin-9-yl)methyl]-5-chloro-1H-indol-2-yl}methyl)-1-(2-hydroxyethyl)-2-methyl-1H-benzimidazole-5-carboxamide]"
7,6.26,"Cc1c(C)n(C)c2ccc(C(=O)NCc3cc4cc(Cl)cc(Cn5cnc6c(N)ncnc65)c4[nH]3)cc12 [Example 378, N-({7-[(6-amino-9H-purin-9-yl)methyl]-5-chloro-1H-indol-2-yl}methyl)-1,2,3-trimethyl-1H-indole-5-carboxamide]"
